Laboratory results as given in ChEMBL document CHEMBL3751741, “Discovery of a potent and highly fluorescent sirtuin inhibitor” (Medchemcomm, 2015).
Values after ≈ are worked out from the molar mass of the structure shown. Active and inactive are the calls of the source. The calls are words filed in the database; no cut-off is given here.

How the values were obtained:
[1] = biological target: T1, NAD-dependent protein deacetylase sirtuin-1 (Homo sapiens) (UniProt Q96EB6); test: Inhibition of recombinant human N-terminal GST-tagged SIRT1 (193 to 741 residues) using human p53 derived peptides as substrate at 50 uM incubated for 45 mins by fluorescence assay
T1 sequence (whole entry): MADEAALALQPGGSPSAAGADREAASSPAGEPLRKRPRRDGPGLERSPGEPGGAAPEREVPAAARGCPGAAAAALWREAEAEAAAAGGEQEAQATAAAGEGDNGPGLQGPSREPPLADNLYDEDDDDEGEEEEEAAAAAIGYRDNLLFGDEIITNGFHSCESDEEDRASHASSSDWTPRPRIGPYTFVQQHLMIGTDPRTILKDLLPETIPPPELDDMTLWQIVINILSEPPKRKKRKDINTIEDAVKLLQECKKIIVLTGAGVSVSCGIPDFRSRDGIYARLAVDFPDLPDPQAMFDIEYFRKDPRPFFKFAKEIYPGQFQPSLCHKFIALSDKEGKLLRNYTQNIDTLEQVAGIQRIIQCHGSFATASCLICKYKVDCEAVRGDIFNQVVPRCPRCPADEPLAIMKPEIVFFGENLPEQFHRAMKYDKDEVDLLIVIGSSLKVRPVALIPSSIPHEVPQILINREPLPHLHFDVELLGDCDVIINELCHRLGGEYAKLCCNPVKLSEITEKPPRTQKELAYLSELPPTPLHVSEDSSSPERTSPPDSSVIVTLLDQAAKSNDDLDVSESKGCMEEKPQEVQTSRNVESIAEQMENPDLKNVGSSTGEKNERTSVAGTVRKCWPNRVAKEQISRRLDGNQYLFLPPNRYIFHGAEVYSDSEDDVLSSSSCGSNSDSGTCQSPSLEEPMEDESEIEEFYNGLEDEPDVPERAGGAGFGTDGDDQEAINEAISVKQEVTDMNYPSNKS

[2] = biological target: T2, NAD-dependent protein deacetylase sirtuin-2 (Homo sapiens) (UniProt Q8IXJ6); test: Inhibition of recombinant human C-terminal His-tagged SIRT2 (13 to 319 residues) using human p53 derived peptides as substrate at 50 uM incubated for 45 mins by fluorescence assay
T2 sequence (whole entry): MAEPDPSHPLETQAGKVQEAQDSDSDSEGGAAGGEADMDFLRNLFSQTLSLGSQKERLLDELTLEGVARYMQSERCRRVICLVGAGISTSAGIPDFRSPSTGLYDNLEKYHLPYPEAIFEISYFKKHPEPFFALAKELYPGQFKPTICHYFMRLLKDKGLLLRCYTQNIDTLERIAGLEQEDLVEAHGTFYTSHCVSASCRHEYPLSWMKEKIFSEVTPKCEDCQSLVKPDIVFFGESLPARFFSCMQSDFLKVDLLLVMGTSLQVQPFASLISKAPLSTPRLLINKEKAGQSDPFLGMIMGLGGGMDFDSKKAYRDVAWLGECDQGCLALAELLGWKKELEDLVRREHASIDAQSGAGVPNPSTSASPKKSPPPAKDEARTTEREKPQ

CCRF-CEM = test: Antiproliferative activity against human CCRF-CEM cells assessed as cell viability at 50 uM after 72 hrs by MTS assay (reference value: 100 +/- 5.54%); format: functional; details: read-out: Activity
[3] = Antiproliferative activity against human HCT116 cells assessed as cell viability at 50 uM after 72 hrs by MTS assay (reference value: 100 +/- 6.01%); format: functional; details: HCT-116, 72 h, read-out: Activity
MDA-MB-468 = test: Antiproliferative activity against human MDA-MB-468 cells assessed as cell viability at 50 uM after 72 hrs by MTS assay (reference value: 100 +/- 8.06%); format: functional; details: MDA-MB-468, 72 h, read-out: Activity
[4] = biological target: T3, NAD-dependent protein deacetylase sirtuin-1 (Homo sapiens, UniProt Q96EB6); test: Inhibition of recombinant human N-terminal GST-tagged SIRT1 (193 to 741 residues) using human p53 derived peptides as substrate incubated for 45 mins by fluorescence assay
T3 sequence (Q96EB6 whole entry): T1 sequence (whole entry)

[5] = biological target: T4, NAD-dependent protein deacetylase sirtuin-2 (Homo sapiens, UniProt Q8IXJ6); test: Inhibition of recombinant human C-terminal His-tagged SIRT2 (13 to 319 residues) using human p53 derived peptides as substrate incubated for 45 mins by fluorescence assay
T4 sequence (Q8IXJ6 whole entry): T2 sequence (whole entry)

[6] = biological target: T2, NAD-dependent protein deacetylase sirtuin-2 (Homo sapiens); test: Reversible inhibition of recombinant human C-terminal His-tagged SIRT2 (13 to 319 residues) using human p53 derived peptides as substrate at 10 uM incubated for 45 mins by fluorescence assay
[7] = biological target: T2, NAD-dependent protein deacetylase sirtuin-2 (Homo sapiens); test: Competitive inhibition of recombinant human C-terminal His-tagged SIRT2 (13 to 319 residues) using human p53 derived peptides as substrate incubated for 45 mins by fluorescence assay in presence of increasing NAD+ level
[8] = Aqueous solubility of compound in water containing 0.5% DMSO by UV-spectrophotometry analysis; format: physicochemical
[9] = biological target: T2, NAD-dependent protein deacetylase sirtuin-2 (Homo sapiens); test: Inhibition of SIRT2 in human HCT116 cells assessed as increase in alpha-tubulin acetylation up to 50 uM incubated for 24 hrs by Western blotting method; format: cell-based; details: HCT-116
[10] = Drug uptake in cytoplasm of human HCT116 cells at 50 uM by fluorescence microscopy; format: ADME, cell-based; details: hct-116, 50 µM
[11] = Drug uptake in cytoplasm of human CCD18 cells at 50 uM by fluorescence microscopy; format: ADME, cell-based; details: ccd18, 50 µM

SMILES	inhibition [1] [%]	inhibition [2] [%]	IC50 [4] [µM]	IC50 [5] [µM]	inhibition [6]	inhibition [7]	solubility [8] [µM]	inhibition [9]	Drug uptake [10]	Drug uptake [11]	viability at 50 µM (CCRF-CEM) [%]	viability at 50 µM [3] [%]	viability at 50 µM (MDA-MB-468) [%]
CCOC(=O)c1ccc2[nH]c(-c3ccccc3)nc2c1	24.7	36.3									58.3	29.7	49.3
CCOC(=O)c1ccc2[nH]c(-c3ccc(OC)cc3)nc2c1		26									87.4	75.6	82.8
N#C/C(=C\c1ccc(-c2cc(Cl)ccc2Cl)o1)C(=O)Nc1cccc2ncccc12			68										
CCOC(=O)c1ccc2[nH]c(-c3ccc(N(C)C)cc3)nc2c1		87.5		13.6							49.5	29.7	31.1
CCOC(=O)c1ccc2[nH]c(-c3ccc(C(C)(C)C)cc3)nc2c1		50.2									82.2	54.2	54.6

More lines, main results first:

inhibition [1] [%]	inhibition [2] [%]	IC50 [4] [µM]	IC50 [5] [µM]	inhibition [6]	inhibition [7]	solubility [8] [µM]	inhibition [9]	Drug uptake [10]	Drug uptake [11]	SMILES	viability at 50 µM (CCRF-CEM) [%]	viability at 50 µM [3] [%]	viability at 50 µM (MDA-MB-468) [%]
	42.9									CCOC(=O)c1ccc2[nH]c(-c3ccc(O)cc3)nc2c1	85.5	77.1	76.5
37.8	60.7	57.5	52.9							CCOC(=O)c1ccc2[nH]c(-c3ccc(N4CCOCC4)cc3)nc2c1	37.8	54.5	42.6
	93.2		9	Active	Active	59 (≈ 20.6 µg/mL)	Active	Active	Active	CCOC(=O)c1ccc2[nH]c(-c3ccc(N4CCCCC4)cc3)nc2c1	36.3	15.9	34
	45.2									CCOC(=O)c1ccc2[nH]c(-c3ccc(C)cc3)nc2c1	61.2	48.4	89.1
